The values that follow come from PubChem BioAssay (NCI).

Structures are written as SMILES. Several values for one entry are separate records, joined by “and”; a condition that tells them apart may be missing. Equal entries are not always repeated.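 Interpolation was linear, between the two tested concentrations surrounding the appropriate level; five concentrations were tested over 48 hours in 96-well plates. Abbreviation: GI50, concentration required for 50% inhibition of growth. Definition used: TGI = concentration required for complete inhibition of growth.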

Common to all, as to test: NCI tumour cell line growth inhibition, 48 h
In assay [1] the test system is HL-60(TB) leukemia.
Assay [2] deals with COLO 205 colon.
Assay [3] relates to KM12 colon.
The subject of assay [4] is SNB-19 CNS.
Assay [5] relates to HCT-15 colon.
The subject of assay [6] is NCI/ADR-RES ovarian.
In assay [7] the test system is SN12C renal.
In assay [8] the test system is NCI-H460 lung.
The test system of assay [9] is HOP-92 NSCLC.
For assay [10], the system named is SK-OV-3 ovarian.

Take `NC(=O)c1cc(I)ccc1NC(=O)/C=C/c1ccccc1`: the GI50 is 0.13 µM in assay [1]; 0.318 µM in [2]; 0.41 µM in [3]; 0.645 µM in assay [4]; 0.587 µM in assay [5]; 0.351 µM in [6]. In addition, the GI50 in assay [7] is 0.69 µM; in [8], 0.417 µM; in assay [9], 17 µM; in assay [10], 0.604 µM. The TGI is 0.912 µM in [1]; 1.24 µM in assay [2]; more than 37.4 µM in assay [3]; 13.7 µM in assay [4]; more than 100 µM in assay [5]; 3.92 µM in assay [6]. In addition, the TGI is more than 63.4 µM in assay [7], 3.44 µM in assay [8], 97.7 µM in assay [9] and 12.8 µM in assay [10].

As for `CO[C@@H]1CC[C@]2(C)OC[C@H](C)[C@@H]3C[C@@H](C)[C@@H](OC(C)=O)[C@@H]4[C@H]3[C@@H]2O[C@H]4C[C@@]1(C)O`, the GI50 in [1], in assay [2], in assay [3], in assay [4], in assay [5] and in [6] was more than 100 µM each time. Moreover, the GI50 in assay [7], in assay [8], in [9] and in assay [10] was more than 100 µM throughout. Also, the TGI in assay [1], in assay [2], in [3], in assay [4], in assay [5] and in assay [6] was more than 100 µM throughout. The TGI in assay [7], in assay [8], in [9] and in assay [10] was more than 100 µM in each case.

For the molecule `COc1cc2c(cc1OCCCN1CCN(CCCOc3cc4c(cc3OC)C(=O)N3CC(F)(F)C[C@H]3C=N4)CC1)N=C[C@@H]1CC(F)(F)CN1C2=O`, the GI50 is 1.18 µM in [1]; 3.09 µM in assay [2]; 4.1 µM in [3]; 4.08 µM in [4]; 16.2 µM in assay [5]; 25.2 µM in [6]. Besides, the GI50 is 4.05 µM in assay [7], 2.6 µM in assay [8], 6.14 µM in assay [9] and 8.64 µM in assay [10]. For the same molecule, the TGI is 5.06 µM in [1]; 10.2 µM in assay [2]; 17.5 µM in assay [3]; 17.5 µM in assay [4]; 36.7 µM in assay [5]; 72.9 µM in assay [6]. Further, the TGI in assay [7] is 19.5 µM; in assay [8], 15.6 µM; in assay [9], 76.3 µM; in assay [10] it was more than 100 µM.

Consider `Nc1c(C(=O)Nc2ccccn2)sc2nc3c(cc12)C(=O)CCC3`, for which the GI50 in assay [1] was 0.689 µM; in [2] it was 0.908 µM; in assay [3] it was 0.762 µM; in [4], 1.3 µM; in [5], 0.812 µM; in assay [6], 0.929 µM. Moreover, the GI50 is 3.36 µM in assay [7], 0.596 µM in [8], 27.7 µM in assay [9] and 1.41 µM in [10]. In addition, the TGI was 5.27 µM in assay [1]; 26 µM in assay [2]; more than 100 µM in assay [3]; more than 100 µM in [4]; more than 100 µM in assay [5]; more than 100 µM in assay [6]. Also, the TGI in [7], in assay [8], in assay [9] and in assay [10] was more than 100 µM in each case.

Turning to `COc1ccc2c(=O)oc3c(OC)cc(CCN(C)C)c4c(=O)oc1c2c34`, the GI50 in [1] is 10.7 µM and 1.84 µM; in assay [3], 18 µM and 6.41 µM; in assay [5], 16.6 µM and 5.11 µM; in assay [8], 13.8 µM and 2.4 µM; in assay [9] it was 21.5 µM and 8.25 µM; in assay [10], 19.5 µM and 8.47 µM. In addition, the TGI in assay [1] is 26.5 µM and 10.2 µM; in assay [2], 17.4 µM and 22.1 µM; in assay [3], 36 µM and 13.4 µM; in assay [4], 29.2 µM and 21.4 µM; in [5], 36.1 µM and 12.3 µM; in assay [6] it was 23.5 µM. The TGI in assay [7] is 27.7 µM and 15.6 µM; in assay [8], 29.9 µM and 9.03 µM; in assay [9], 39.6 µM and 15.2 µM; in assay [10], 33.7 µM and 15.9 µM.

Consider `NC(N)=Nc1nc2ccccc2o1`, for which the GI50 in assay [1], in assay [2], in [3], in assay [4], in [5] and in assay [6] was more than 100 µM in each case. Besides, the GI50 in [7], in assay [8], in [9] and in assay [10] was more than 100 µM throughout. The TGI in [1], in assay [2], in assay [3], in assay [4], in assay [5] and in assay [6] was more than 100 µM throughout. The TGI in assay [7], in [8], in assay [9] and in assay [10] was more than 100 µM each time.

As to `O=C(Nc1ncc(Cc2cccc(C(F)(F)F)c2)s1)c1ccc2c(c1)OCCO2`, the GI50 is 0.34 µM in [1]; 0.282 µM in assay [2]; 0.196 µM in assay [3]; 0.506 µM in [4]; 0.139 µM in assay [5]; 0.251 µM in assay [6]. The GI50 in assay [7] was 0.592 µM; in assay [8] it was 0.349 µM; in assay [9], 2.97 µM; in [10] it was 0.746 µM. In addition, the TGI in assay [1] was more than 100 µM; in assay [2] it was 1.54 µM; in assay [3], more than 100 µM; in assay [4] it was more than 68.4 µM; in assay [5], more than 100 µM; in assay [6], 6.96 µM. For the same molecule, the TGI in [7] was more than 100 µM; in assay [8], more than 38.2 µM; in [9], more than 72.2 µM; in assay [10], 46.6 µM.

Regarding `O=c1cccc(C#CC#C[C@@H]2O[C@H]2CO)o1`, the GI50 was 3.12 µM in [1]; 0.201 µM in assay [2]; 2.06 µM in assay [3]; 3.36 µM in assay [4]; 1.42 µM in [5]; 1.24 µM in assay [6]. The GI50 in assay [7] was 0.465 µM; in assay [8], 2.03 µM; in assay [9], 1.06 µM; in [10], 4.05 µM. The TGI in assay [1] is more than 100 µM; in assay [2], 0.388 µM; in assay [3] it was 7.47 µM; in [4] it was 12 µM; in assay [5], 3.14 µM; in assay [6], 4.53 µM. Moreover, the TGI in [7] worked out at 0.915 µM; in assay [8], 4.63 µM; in [9] it was 3.34 µM; in assay [10], 12.6 µM.
